Laboratory results from US8299070B2, “Indole compounds and pharmaceutical use thereof” (Japan Tobacco Inc., priority 2009, dated 2012).

Biological target: T1, hITK enzyme (FLAG-tagged full-length hITK) (Homo sapiens, UniProt Q08881)
T1 construct: strongly expressing FLAG-tagged full-length hITK in Sf9 cells; FLAG; made in house; host or cells: Sf9 insect cells (ITK); Escherichia coli (GST-SLP76 substrate)
T1 sequence (Q08881 1-620): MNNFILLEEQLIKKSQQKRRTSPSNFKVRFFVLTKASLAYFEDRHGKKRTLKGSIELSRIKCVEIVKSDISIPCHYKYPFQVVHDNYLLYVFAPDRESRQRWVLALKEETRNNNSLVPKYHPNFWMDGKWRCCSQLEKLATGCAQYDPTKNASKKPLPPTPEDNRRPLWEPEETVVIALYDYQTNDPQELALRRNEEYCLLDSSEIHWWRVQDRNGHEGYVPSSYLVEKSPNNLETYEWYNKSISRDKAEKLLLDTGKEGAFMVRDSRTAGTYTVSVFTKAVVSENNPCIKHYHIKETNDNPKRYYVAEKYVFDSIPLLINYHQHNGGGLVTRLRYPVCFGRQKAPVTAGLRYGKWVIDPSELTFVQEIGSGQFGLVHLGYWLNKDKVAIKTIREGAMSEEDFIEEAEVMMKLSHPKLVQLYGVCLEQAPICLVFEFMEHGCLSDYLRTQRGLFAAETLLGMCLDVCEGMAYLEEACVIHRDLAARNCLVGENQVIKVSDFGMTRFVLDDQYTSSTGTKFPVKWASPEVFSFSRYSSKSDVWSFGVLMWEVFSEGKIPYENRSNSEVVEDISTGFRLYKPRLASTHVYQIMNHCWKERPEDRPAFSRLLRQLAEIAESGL
Test: ITK inhibitory activity (HTRF kinase assay, biotinylated GST-SLP76 substrate)
Format: biochemical
Conditions: IC50 calculated from the 2 test compound concentrations sandwiching 50% ITK inhibitory rate
Outline: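 Sf9-expressed hITK (50 ng/mL enzyme solution) reacted 10 min at RT in MOPS pH 7.0, 10 mmol/L MgCl2, 1 mmol/L DTT with E. coli SLP76 aa95–175 substrate; substrate solution held 100 µmol/L ATP (6 µmol/L for selected compounds). HTRF 665/620 ratio, blank-corrected; IC50 interpolated between two concentrations bracketing 50% inhibition.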

IC50 [nM] | SMILES
12 | CCC(=O)N(C)[C@@H](C)C(=O)N(C)c1ccc2cc(-c3n[nH]c4c3CCC(C)(C)C4)[nH]c2c1 [Example 203]
27 | C[C@@H](C(=O)N(C)c1ccc2cc(-c3n[nH]c4c3CCC(C)(C)C4)[nH]c2c1)N(C)C(=O)C1CC1 [Example 205]
5 | CCN(C(=O)CO)c1ccc2cc(-c3n[nH]c4c3CCC(C)(C)C4)[nH]c2c1 [Example 206]
4 | CCN(C(=O)COC)c1ccc2cc(-c3n[nH]c4c3CCC(C)(C)C4)[nH]c2c1 [Example 207]
29 | CC1(C)CCc2c(-c3cc4ccc(N5CCOC5=O)cc4[nH]3)n[nH]c2C1 [Example 208]
4 | CCC(=O)N(CCO)c1ccc2cc(-c3n[nH]c4c3CCC(C)(C)C4)[nH]c2c1 [Example 209]
36 | CC1(C)CCc2c(-c3cc4ccc(N5CCCC5=O)cc4[nH]3)n[nH]c2C1 [Example 210]
33 | CC1(C)CCc2c(-c3cc4ccc(N5CCCCC5=O)cc4[nH]3)n[nH]c2C1 [Example 211]
5 | CCC(=O)N(CCOC)c1ccc2cc(-c3n[nH]c4c3CCC(C)(C)C4)[nH]c2c1 [Example 212]
< 3 | COCC(=O)N(CCO)c1ccc2cc(-c3n[nH]c4c3CCC(C)(C)C4)[nH]c2c1 [Example 213]
< 3 | CC(=O)N(CCO)c1ccc2cc(-c3n[nH]c4c3CCC(C)(C)C4)[nH]c2c1 [Example 214]
< 3 | CN(C)CCN(C(=O)C1CCCCC1)c1ccc2cc(-c3n[nH]c4c3CCC(C)(C)C4)[nH]c2c1 [Example 215]
8 | CN(C)CCN(C(=O)C1CCOCC1)c1ccc2cc(-c3n[nH]c4c3CCC(C)(C)C4)[nH]c2c1 [Example 216]
< 3 | CN(C)CCN(C(=O)C1CCOC1)c1ccc2cc(-c3n[nH]c4c3CCC(C)(C)C4)[nH]c2c1 (stereo not drawn) [Example 217]
< 3 | CN(C)CCCN(C(=O)C1CCCCC1)c1ccc2cc(-c3n[nH]c4c3CCC(C)(C)C4)[nH]c2c1 [Example 218]
4 | CN(C)CCN(C(=O)CC1CCCCC1)c1ccc2cc(-c3n[nH]c4c3CCC(C)(C)C4)[nH]c2c1 [Example 219]
< 3 | CN(C)CCN(C(=O)C1CCCO1)c1ccc2cc(-c3n[nH]c4c3CCC(C)(C)C4)[nH]c2c1 (stereo not drawn) [Example 220]
3 | CN(C)CCN(C(=O)CC1CCOCC1)c1ccc2cc(-c3n[nH]c4c3CCC(C)(C)C4)[nH]c2c1 [Example 221]
< 3 | COCC(=O)N(CCN(C)C)c1ccc2cc(-c3n[nH]c4c3CCC(C)(C)C4)[nH]c2c1 [Example 222]
5 | CN(C)CCCN(C(=O)C1CCOCC1)c1ccc2cc(-c3n[nH]c4c3CCC(C)(C)C4)[nH]c2c1 [Example 223]
1 | CN(C)CCCN(C(=O)C1CCCO1)c1ccc2cc(-c3n[nH]c4c3CCC(C)(C)C4)[nH]c2c1 (stereo not drawn) [Example 224]

IC50 [nM] | SMILES
2 | CN(C)CCCN(C(=O)C1CCOC1)c1ccc2cc(-c3n[nH]c4c3CCC(C)(C)C4)[nH]c2c1 (stereo not drawn) [Example 225]
2 | CN(C)CCCN(C(=O)CC1CCOCC1)c1ccc2cc(-c3n[nH]c4c3CCC(C)(C)C4)[nH]c2c1 [Example 226]
34 | CC1(C)CCc2c(-c3cc4ccc(N5CCC(O)C5=O)cc4[nH]3)n[nH]c2C1 (stereo not drawn) [Example 227]
40 | CC1(C)CCc2c(-c3cc4ccc(N5CCC(CO)C5=O)cc4[nH]3)n[nH]c2C1 (stereo not drawn) [Example 228]
38 | CC1CCN(c2ccc3cc(-c4n[nH]c5c4CCC(C)(C)C5)[nH]c3c2)C1=O (stereo not drawn) [Example 229]
25 | CC1(C)CCc2c(-c3cc4ccc(N5CCC(C)(CO)C5=O)cc4[nH]3)n[nH]c2C1 (stereo not drawn) [Example 230]
2 | CC1(C)CCc2c(-c3cc4ccc(N(CCO)C(=O)C5CCCC5)cc4[nH]3)n[nH]c2C1 [Example 231]
3 | CC1(C)CCc2c(-c3cc4ccc(N(CCO)C(=O)CC5CCCOC5)cc4[nH]3)n[nH]c2C1 (stereo not drawn) [Example 232]
10 | CO[C@H]1CC[C@H](C(=O)N(CCO)c2ccc3cc(-c4n[nH]c5c4CCC(C)(C)C5)[nH]c3c2)CC1 [Example 233]
16 | CC1(C)CCc2c(-c3cc4ccc(N(CCO)C(=O)[C@H]5CC[C@H](O)CC5)cc4[nH]3)n[nH]c2C1 [Example 234]
8 | CC1(C)CCc2c(-c3cc4ccc(N(CCO)C(=O)CC5CCCCC5)cc4[nH]3)n[nH]c2C1 [Example 235]
6 | CC1(C)CCc2c(-c3cc4ccc(N(CCO)C(=O)C5CCOCC5)cc4[nH]3)n[nH]c2C1 [Example 236]
2 | CC1(C)CCc2c(-c3cc4ccc(N(CCO)C(=O)C5CCCO5)cc4[nH]3)n[nH]c2C1 (stereo not drawn) [Example 237]
2 | CC1(C)CCc2c(-c3cc4ccc(N(CCO)C(=O)C5CCOC5)cc4[nH]3)n[nH]c2C1 (stereo not drawn) [Example 238]
5 | CC1(C)CCc2c(-c3cc4ccc(N(CCO)C(=O)C5CCCCC5)cc4[nH]3)n[nH]c2C1 [Example 239]
3 | CO[C@H]1CC[C@@H](C(=O)N(CCO)c2ccc3cc(-c4n[nH]c5c4CCC(C)(C)C5)[nH]c3c2)CC1 [Example 240]
23 | CC(C(=O)N(CCO)c1ccc2cc(-c3n[nH]c4c3CCC(C)(C)C4)[nH]c2c1)C1CCCCC1 (stereo not drawn) [Example 241]
3 | CC(C(=O)N(CCO)c1ccc2cc(-c3n[nH]c4c3CCC(C)(C)C4)[nH]c2c1)C1CCOCC1 (stereo not drawn) [Example 242]
24 | COC1(C)CCN(c2ccc3cc(-c4n[nH]c5c4CCC(C)(C)C5)[nH]c3c2)C1=O (stereo not drawn) [Example 243]
23 | CC1(C)CCc2c(-c3cc4ccc(N5CCC(C)(O)C5=O)cc4[nH]3)n[nH]c2C1 (stereo not drawn) [Example 244]
10 | CC1(C)CCc2c(-c3cc4ccc(N(CCO)C(=O)C(O)C5CCCOC5)cc4[nH]3)n[nH]c2C1 (stereo not drawn) [Example 245]

IC50 [nM] | SMILES
7 | CC1(C)CCc2c(-c3cc4ccc(N(CCO)C(=O)C(O)C5CCCOC5)cc4[nH]3)n[nH]c2C1 (stereo not drawn) [Example 246]
4 | CC(C)CC(=O)N(CCO)c1ccc2cc(-c3n[nH]c4c3CCC(C)(C)C4)[nH]c2c1 [Example 247]
2 | CC1(C)CCc2c(-c3cc4ccc(N(CCO)C(=O)[C@H]5CC[C@@H](O)CC5)cc4[nH]3)n[nH]c2C1 [Example 248]
7 | CC1(C)CCc2c(-c3cc4ccc(N(CCO)C(=O)CC5CCOCC5)cc4[nH]3)n[nH]c2C1 [Example 249]
139 | CC1(C)CCc2c(-c3cc4ccc(N5CCC(C6CCCCC6)C5=O)cc4[nH]3)n[nH]c2C1 (stereo not drawn) [Example 250]
34 | CC1(C)CCc2c(-c3cc4ccc(N5CCC(CO)(C6CCCCC6)C5=O)cc4[nH]3)n[nH]c2C1 (stereo not drawn) [Example 251]
11 | C[C@H](C(=O)N(CCO)c1ccc2cc(-c3n[nH]c4c3CCC(C)(C)C4)[nH]c2c1)N1CCOCC1 [Example 252]
2 | CC1(C)CCc2c(-c3cc4ccc(N(CCO)C(=O)CN5CCCCC5=O)cc4[nH]3)n[nH]c2C1 [Example 253]
5 | CC1(C)CCc2c(-c3cc4ccc(N(CCO)C(=O)CN5CCOCC5)cc4[nH]3)n[nH]c2C1 [Example 254]
3 | C[C@@H](C(=O)N(CCO)c1ccc2cc(-c3n[nH]c4c3CCC(C)(C)C4)[nH]c2c1)N1CCOCC1 [Example 255]
1 | CC1(C)CCc2c(-c3cc4ccc(N(CCO)C(=O)CN5CCCCCC5=O)cc4[nH]3)n[nH]c2C1 [Example 256]
1 | CC1CCN(CC(=O)N(CCO)c2ccc3cc(-c4n[nH]c5c4CCC(C)(C)C5)[nH]c3c2)C1=O (stereo not drawn) [Example 257]
4 | CCN(c1ccc2cc(-c3n[nH]c4c3CCC(C)(C)C4)[nH]c2c1)C(=O)[C@H]1CC[C@@H](O)CC1 [Example 258]
3 | COCCN(c1ccc2cc(-c3n[nH]c4c3CCC(C)(C)C4)[nH]c2c1)C(=O)[C@H]1CC[C@@H](O)CC1 [Example 259]
< 1 | CCN(C(=O)CN1CCOC(C)C1=O)c1ccc2cc(-c3n[nH]c4c3CCC(C)(C)C4)[nH]c2c1 (stereo not drawn) [Example 260]
3 | COCCN(C(=O)CN1C(=O)COC[C@H]1C)c1ccc2cc(-c3n[nH]c4c3CCC(C)(C)C4)[nH]c2c1 [Example 262]
7 | CCN(C(=O)C(C)C1CCOCC1)c1ccc2cc(-c3n[nH]c4c3CCC(C)(C)C4)[nH]c2c1 (stereo not drawn) [Example 263]
10 | COCCN(C(=O)C(C)C1CCOCC1)c1ccc2cc(-c3n[nH]c4c3CCC(C)(C)C4)[nH]c2c1 (stereo not drawn) [Example 264]
2 | COCCN(C(=O)CN1CCOC(C)C1=O)c1ccc2cc(-c3n[nH]c4c3CCC(C)(C)C4)[nH]c2c1 (stereo not drawn) [Example 265]
7 | CCN(c1ccc2cc(-c3n[nH]c4c3CCC(C)(C)C4)[nH]c2c1)C(=O)[C@H]1CC[C@@H](OC)CC1 [Example 266]

Same assay, conditions: at 30 nM test compound; read-out: ITK inhibitory rate (%)

inhibition at 0.03 µM [%] | SMILES
49.2 | CC(C)C(=O)N(C)[C@@H](C)C(=O)N(C)c1ccc2cc(-c3n[nH]c4c3CCC(C)(C)C4)[nH]c2c1 [Example 204]
